According to a melting point compilation (Tetko et al.; mined from patent text by program, amines drawn as free bases though some values may be those of a salt):

Row | Compound | melting point [°C]
1 | Cn1c(COc2nc(CCC(=O)O)oc2-c2ccccc2)nc2ccccc21 | 222 to 224
2 | O=C1Nc2ccc(Cl)c(Cl)c2C1=O | 239 to 240
3 | CN1CCC2(c3cccc(O)c3)CCCC2C1 (centres undefined) | 151 to 153
4 | CSC[C@H](C)NC(=O)c1c(OC(F)(F)F)cccc1C(=O)Nc1ccc(Cn2nc(C(F)(F)F)cc2C(F)(F)F)cc1C | 158 to 160
5 | CCc1oc(C(O)(C(F)(F)F)C(F)(F)F)nc1-c1ccc(S(C)(=O)=O)cc1 | 92 to 93
6 | ICCCOc1ccc(OCCCI)cc1 | 93 to 95
7 | COC1=C(OC)C(=O)C2=C(CCC(CC(=O)O)CC2)C1=O | 130 to 132
8 | Cc1c(NC(=O)c2cc3c(s2)CCCC3)cccc1-c1cn(C)c(=O)c(Br)n1 | 240 to 241
9 | CN(Sc1ccc(C(C)(C)C)cc1)C(=O)Oc1cccc2c1OC(C)(C)C2 | 120 to 123
10 | O=C(NCCN1CCC(O)(c2ccc(Cl)cc2)CC1)c1ccccc1Br | 121
11 | CC(C)CC1(C(CCN2C(=O)c3ccc(F)cc3C2=O)C(=O)NO)CCN(CCc2ccccc2)C1=O (centres undefined) | 143 to 144
12 | CCOC(=O)Cc1ccc(-c2nc(COc3ccc(C=O)cc3OC)c(C)o2)cc1 | 151 to 152
13 | CCCc1cccnc1N(C)C1CCN(C(=O)c2ccc[nH]2)CC1 | 88 to 90
14 | CN1Cc2c(C(=O)NN)ncn2-c2cccc(Cl)c2C1=O | 287
15 | O=C(O)c1cc2cc(Cl)ccc2nc1N[C@@H](Cc1ccc(Oc2ccc(Br)cn2)cc1)C(=O)O | 145 to 150
16 | O=C(O)CCC(c1cc(F)ccc1F)S(=O)(=O)c1ccc(Cl)cc1 (centres undefined) | 157 to 158
17 | CCC(Oc1ccccc1)c1nnc(NC(=O)N(C)CC(OC)OC)s1 (centres undefined) | 84 to 85
18 | CNN(NC)C(=S)Oc1cccnc1C(=O)OC | 74 to 75
19 | O=C1OC[C@@H](c2ccccc2)N[C@H]1Cc1ccccc1 | 75 to 76
20 | CC1(C)OC(=O)N(C(=O)/C=C/c2ccccc2)[C@@H]1c1ccccc1 | 149

Row | Compound | melting point [°C]
21 | CCc1noc(-c2cn(-c3cccc(OC)c3)cn2)n1 | 89 to 90
22 | NC(=O)C1(c2ccccc2)CCN(Cc2ccccc2)C1 (centres undefined) | 88 to 90
23 | COc1ccccc1Cc1n[nH]c2c1c(=O)n(-c1ccccc1)c1ncccc21 | 276 to 277
24 | CC(C)(C)OC(=O)C(CN(Cc1ccccc1)Cc1ccccc1)CC1(C(=O)NC(Cc2ccc(OC(C)(C)C)cc2)C(=O)OC(C)(C)C)CCCC1 (centres undefined) | 82 to 87
25 | COc1ccc(C(C)(C#N)CNC(=O)C(N)=O)cc1OC1CCCC1 (centres undefined) | 171 to 172
26 | CC1(C)CC(=O)Nc2cc3nc(-c4ccc(-n5ccnc5)cc4)[nH]c3cc21 | > 300
27 | COc1ccc(C(=O)O[Si](C)(C)C)cc1 | 60 to 61
28 | O=C(O)c1ccccc1Sc1ccc([N+](=O)[O-])cc1[N+](=O)[O-] | 179 to 181
29 | Cn1c(=O)n(-c2ccccc2)c(=O)n1SC(Cl)(Cl)Cl | 154
30 | O=C(N[C@H]1CC[C@H](CCN2CCN(c3nccc4c3OCC4)CC2)CC1)c1ccc(-c2ccccc2)cc1 | 220
31 | CC(C)Cc1nc2c(N)nc3c(c2n1CC(C)C)CCCC3 | 160 to 161
32 | O=[N+]([O-])c1ccc(NCCO)nc1NCCO | 130 to 131
33 | CC(C)(N)c1ccc(-c2nc(Nc3cccc(CCO)c3)ncc2Cl)cc1 | 184 to 185
34 | CSC(=S)NCCCN1CCN(c2ccccc2)CC1 | 75 to 79
35 | N#Cc1cc(-c2c[nH]nc2-c2ccc(F)cc2)ccn1 | 209
36 | CNC=Nc1ccc(-c2c[nH]cn2)cc1 | 189 to 190
37 | CC(CBr)=C(C(=O)OCc1ccccc1)N1C(=O)C(Br)(Br)C1Br (centres undefined) | 84 to 85
38 | CC(NC(=S)NC(COC(=O)C(C)(C)C)Cc1ccccc1)c1ccc([N+](=O)[O-])cc1 (centres undefined) | 99 to 100
39 | N#Cc1c(OCCN2CCOCC2)cccc1Oc1ccc(-c2cn(C3CCOCC3)c3ncnc(N)c23)cc1 | 110
